The test system of data set [1] is APEC O1 in THP-1 cells. Briefly: Intracellular survival assay, APEC O1 in THP-1 cells. Type of data set: cell-based, avian pathogenic E. coli (APEC) O1. To be noted: MOI 100, 100 µM, 6 h, vs DMSO treated control. On the procedure:
(§1) The effect of the selected AI-2 inhibitors on the survival of APEC in macrophage cells was tested as described before. Briefly, HD-11 cells was grown as described above and infected with 1 × 10^7 CFU (MOI = 100) of mid-log phase APEC strains (O78, O1 and O2) at 37 °C for 1 h. Cells were washed with PBS and treated with gentamicin (150 μg/mL) for 1 h to kill the extracellular bacteria. The cells were then washed and incubated with 100 µM of each compound in media containing 10 μg/mL of gentamicin at 37 °C for 6 h. Following treatment, cells were washed, lysed with 0.1% Triton X-100 for 5 min, ten-fold serially diluted in PBS and plated on LB agar plates to determine CFUs. Cells treated with chloramphenicol (40 μg/mL) and 1 μL of 100% DMSO were used as controls. The experiment was conducted two times with four replicates in each experiment. Intracellular survival was expressed as the log change of APEC CFUs in the AI-2 inhibitors treated cells.
(§2) Similarly, the intracellular survival assay was also performed in THP-1 cells (ATCC® TIB-202™) as described above. The THP-1 cells were grown in RPMI 1640 medium (Gibco) supplemented with 10% FBS and 2 mM glutamine. In order to differentiate the THP-1 monocyte to macrophage, 100 nM phorbol myristate acetate (PMA; Sigma-Aldrich) was added to the media. The cells (1.4 × 10^5 cells/well) were grown in a 96-well plate in a 5% CO2 incubator at 37 °C for 48 h, infected with APEC (MOI = 100), treated with each compound and the intracellular bacteria was determined as above.

Data set [2] has as its system G. mellonella larvae. The experiment in a line: Toxicity of SMs in wax moth larvae. The class given is in vivo, Galleria mellonella. The following applies: uninfected larvae, 12.5 µg/larva (50 mg/kg), 72 h. On the procedure: To confirm that the death of the larvae was not due to the compounds, intrinsic toxicity the AI-2 inhibitors were assessed in a separate experiment. G. mellonella larvae (fifth instar; n = 10) were inoculated with 8.5 µL of SMs (50 mg/kg body weight; 12.5 µg/ larva) into the hemocoel via the last left proleg. Post inoculation, larvae were placed inside sterile petri dishes and incubated in the dark at 37 °C for 72 h and larval survival was monitored every 24 h. Two independent experiments were conducted

In data set [3] the test system is APEC O1 in HD-11 cells. Briefly: Intracellular survival assay, APEC O1 in HD-11 cells. Type of data set: cell-based, avian pathogenic E. coli (APEC) O1. The following applies: MOI 100, 100 µM, 6 h; for reduction of intracellular survival of APEC O1: vs DMSO treated control. As for the experimental part:
as §1

Data set [4] has as its system sheep RBCs. The following applies: 1 h, 100 µM.
Protocol: (§4) The hemolytic activity of the selected AI-2 inhibitors was determined as described before [56]. Briefly, 200 µL of the 10% RBCs (LAMPIRE Biological Laboratories) suspension in PBS was incubated with 100 μM of each compound for 1 h in a 96-well plate. The plate was then centrifuged at 5000 × g for 5 min, placed on ice for 5 min and the absorbance of the supernatant was measured at 540 nm. PBS, 1% DMSO, and 0.1% Triton X-100 were used as controls. Two independent experiments were conducted in triplicate wells in each experiment.
Data set [5] relates to chicken RBCs. The following applies: 1 h, 100 µM.
Protocol: as §4
Data set [6] concerns Caco-2 cells. Briefly: Lactate dehydrogenase (LDH) cytotoxicity assay, Caco-2. The class given is cell-based, human. The following applies: 100 µM, 24 h. As for the experimental part:
(§3) The selected 10 AI-2 inhibitors were evaluated for their toxicity to Caco-2 (ATCC® HTB-37™) using LDH assay. Briefly, Caco-2 cells (1.4 × 10^5 cells/well) were grown in a 96-well plate in minimal essential medium (MEM) supplemented with 20% fetal bovine serum (FBS; Gibco), 1% non-essential amino acid (NEAA, Invitrogen Life Technologies) and 1mM sodium pyruvate, at 37 °C in a humidified 5% CO2 incubator for 48 h until a complete monolayer was formed. For LDH assay, cells were washed twice with media containing no FBS/no antibiotics and incubated with 150 µL of fresh media containing 100 μM of each compound at 37 °C for 24 h in a humidified 5% CO2 incubator. Fifty microliters of supernatant was analyzed using LDH Cytotoxicity Assay Kit (Thermo Scientific).

The test system of data set [7] is APEC O78 in HD-11 cells. Briefly: Intracellular survival assay, APEC O78 in HD-11 cells. The class given is cell-based, avian pathogenic E. coli (APEC) O78. To be noted: MOI 100, 100 µM, 6 h; for reduction of intracellular survival of APEC O78: vs DMSO treated control. As for the experimental part:
as §1

In data set [8] the test system is HD-11 cells. Briefly: Lactate dehydrogenase (LDH) cytotoxicity assay, HD-11. The class given is cell-based, chicken. The following applies: 100 µM, 24 h. As for the experimental part: as §3
Toxicity was also determined on HD-11 cells (CVCL-4685). The HD-11 cells (1.4 × 10^5 cells/well) were grown in Iscove’s modified Dulbecco’s medium (IMEM; Gibco) supplemented with 2 mM glutamine and 10% FBS at 37 °C in a humidified 5% CO2 for 48 h until a monolayer was completely formed. LDH assay was conducted as described above.

The test system of data set [9] is APEC O2 in THP-1 cells. Briefly: Intracellular survival assay, APEC O2 in THP-1 cells. Type of data set: cell-based, avian pathogenic E. coli (APEC) O2. The following applies: MOI 100, 100 µM, 6 h; for reduction of intracellular survival of APEC O2: vs DMSO treated control. On the procedure: as §1, §2
Data set [10] concerns APEC O78 in THP-1 cells. The experiment in a line: Intracellular survival assay, APEC O78 in THP-1 cells. The class given is cell-based, avian pathogenic E. coli (APEC) O78. The following applies: MOI 100, 100 µM, 6 h, vs DMSO treated control. As for the experimental part: as §1
Similarly, the intracellular survival assay was also performed in THP-1 cells (ATCC® TIB-202™) as described above. The THP-1 cells were grown in RPMI 1640 medium (Gibco) supplemented with 10% FBS and 2 mM glutamine. […] The cells (1.4 × 10^5 cells/well) were grown in a 96-well plate in a 5% CO2 incubator at 37 °C for 48 h, infected with APEC (MOI = 100), treated with each compound and the intracellular bacteria was determined as above.

Regarding `COCCN1CCC(CN(Cc2ccncc2)Cc2ccccc2Cl)CC1` [C1, (2-chlorobenzyl){[1-(2-methoxyethyl)-4-piperidinyl]methyl}(4-pyridinylmethyl)amine], the “reduction of intracellular survival of APEC O1” value (from here on “reduction … of APEC O1”) in data set [1] was “up to 0.9 log”. For the same molecule, the “survival of larvae treated with compound (toxicity)” value in [2] worked out at 100%.
Take `NC(=O)c1ccccc1Nc1cccc(C(F)(F)F)c1` [C3, 2-{[3-(trifluoromethyl)phenyl]amino}benzamide]: the “clearance of intracellular APEC O1” value in data set [3] came out at 100%. Moreover, the “reduction … of APEC O1” value in data set [3] was ~ 4 logs; in data set [1], “up to 0.9 log”. Further, the hemolytic activity in data set [4] is 20.6%; in [5], 6.4%.
As to `CS/C(N)=N/N=C/c1cc(C)ccc1O` [C4, methyl N'-(2-hydroxy-5-methylbenzylidene)h ydrazonothiocarbamate], the “cytotoxicity (LDH release)” value in data set [6] was 12%. For the same molecule, in data set [7], the “reduction of intracellular survival of APEC O78” value (“reduction … of APEC O78” for short) is on record as “up to 1 logs”.
`Cc1ccc(CN2CCN(CCCc3ccccc3)CC2)cc1` [C5, 1-(4-methylbenzyl)-4-(3-phenylpropyl)piperazine]: the “cytotoxicity (LDH release)” value in data set [8] is “less than 10%”.
For the molecule `O=[N+]([O-])c1cccc(S(=O)(=O)Nc2ccc(Br)cc2)c1` [C6, N-(4-bromophenyl)-3-nit robenzenesulfonamide], the “cytotoxicity (LDH release)” value in data set [6] was found to be 27%. The “survival of larvae treated with compound (toxicity)” value in data set [2] came out at 100%.
Regarding `CCc1ccccc1Nc1nc(-c2c(C)nc3ccccn23)cs1` [C8, N-(2-ethylphenyl)-4-(2-methylimidazo[1,2-a]pyridin-3-yl)-1,3-thiazol-2-amine], the “cytotoxicity (LDH release)” value is recorded as 2% in data set [6] and “less than 10%” in data set [8]. The “reduction … of APEC O78” value in data set [7] is given as “up to 1 logs”.
In the case of `Fc1ccc(CN2CCCN(Cc3nc(-c4ccc(C(F)(F)F)cc4)no3)CC2)cc1` [C9, 1-(4-fluorobenzyl)-4-({3-[4-(trifluoromethyl)phenyl]-1,2,4-oxadiazol-5-yl}methyl)-1,4-diazepane], in data set [7], the “clearance of intracellular APEC O78” value was determined as 100% and the “reduction … of APEC O78” value is ~ 4 logs. Besides, in [9], the “clearance of intracellular APEC O2” value stood at 100% and the “reduction of intracellular survival of APEC O2” value was determined as 4 logs. Besides, the “reduction … of APEC O1” value in data set [1] is “up to 0.9 log”.
Turning to `OCCC1CN(C2CCN(c3ccccc3)CC2)CCN1CCCc1ccccc1` (stereo not shown) [C10, 2-[4-(1-phenyl-4-piperidinyl)-1-(3-phenylpropyl)-2-piperazinyl]ethanol], in [6], the “cytotoxicity (LDH release)” value came to 27%. Besides, in data set [7], the “clearance of intracellular APEC O78” value is on record as 100% and the “reduction … of APEC O78” value is reported as ~ 4 logs. The “reduction … of APEC O1” value in data set [3] is “up to 0.9 logs”. In addition, the “reduction … of APEC O78” value in data set [10] was “up to 0.7 logs”. Besides, in data set [9], the “clearance of intracellular APEC O2” value is given as 100% and the “reduction of intracellular survival of APEC O2” value worked out at 4 logs. Further, the “reduction … of APEC O1” value in [1] is on record as “up to 0.9 log”.

Source of the values: PMC7000209, “Novel small molecule modulators of quorum sensing in avian pathogenic Escherichia coli (APEC)” (Virulence, 2018).
